Source: patent US20230090293A1, “ANTIBIOTICS” (ASTON UNIVERSITY, priority 2020, published 2023)

What was measured:
[1] = test system: HCT116 (colorectal cancer cell line); experiment: In vitro chemosensitivity (MTT) assay, HCT116; assay type: cell-based, human; conditions: 24 h exposure, 72 h recovery, mean ± SD
Experimental: (§1) In vitro chemosensitivity tests were performed against HCT116 (colorectal cancer cell line), A2780 and A2780cisR (cisplatin sensitive and cisplatin resistant ovarian cancer cell lines, respectively). Cancer cell lines were routinely maintained as monolayer cultures in RPMI medium supplemented with 10% foetal calf serum, penicillin (100 I.U./ml) and streptomycin (100 μg/ml), sodium pyruvate (1 mM) and L-glutamine (2 mM). For chemosensitivity studies, cells were incubated in 96-well plates at a concentration of 7.5×10^3 cells per well and the plates were incubated for 24 hours at 37° C. and a 5% CO2 humidified atmosphere prior to drug exposure.
(§2) Complexes were dissolved in dimethylsulfoxide (DMSO) to provide stock solutions which were further diluted with media to provide a range of final concentrations. Drug-media solutions were added to cells (the final concentration of DMSO was less than 0.5% (v/v) in all cases) and incubated for 24 hours at 37° C. and 5% CO2 humidified atmosphere. […] A Thermo Scientific Multiskan EX microplate photometer was used to measure the absorbance in each well at 570 nm. Cell survival was determined as the absorbance of treated cells divided by the absorbance of controls and expressed as a percentage. The IC50 values were determined from plots of % survival against drug concentration. […]

[2] = test system: A2780cisR (cisplatin resistant ovarian cancer cell line); experiment: In vitro chemosensitivity (MTT) assay, A2780cisR; assay type: cell-based, human; conditions: 24 h exposure, 72 h recovery, mean ± SD
Experimental: as §1, §2

N.N.[Cl][Pt][Cl] [cisplatin]
IC50 [1]: 59.8 ± 7.5 µM
IC50 [2]: 11.9 ± 2.2 µM
